# Assay results reported in patent US9340590B2 (priority 2011, dated 2016).
# Positions of bridges follow the written chain, without caps; N, C: chain ends. Non-standard residues stand in square brackets, D forms with d. Residues, ends and D or L forms follow the SMILES beside them. Trp(1-Me) = Cn1cc(C[C@H](N)C(=O)O)c2ccccc21
# Assays:
# Experiment in all cases: cell-based
# hNav1.7 = hNav1.7 (Homo sapiens, UniProt Q15858); assay type: cell-based; conditions: IonWorks Quattro, use-dependent protocol, hNav1.7; read-out: IWQ Use Nav1.7
# hNav1.5 = hNav1.5 (Homo sapiens, UniProt Q14524); conditions: IonWorks Quattro, use-dependent protocol, hNav1.5; read-out: IWQ Use Nav1.5
# hNav1.3 = hNav1.3 (Homo sapiens, UniProt Q9NY46); conditions: IonWorks Quattro, use-dependent protocol, hNav1.3; read-out: IWQ Use Nav1.3
# Sequence of hNav1.3 (Q9NY46 whole entry, looked up): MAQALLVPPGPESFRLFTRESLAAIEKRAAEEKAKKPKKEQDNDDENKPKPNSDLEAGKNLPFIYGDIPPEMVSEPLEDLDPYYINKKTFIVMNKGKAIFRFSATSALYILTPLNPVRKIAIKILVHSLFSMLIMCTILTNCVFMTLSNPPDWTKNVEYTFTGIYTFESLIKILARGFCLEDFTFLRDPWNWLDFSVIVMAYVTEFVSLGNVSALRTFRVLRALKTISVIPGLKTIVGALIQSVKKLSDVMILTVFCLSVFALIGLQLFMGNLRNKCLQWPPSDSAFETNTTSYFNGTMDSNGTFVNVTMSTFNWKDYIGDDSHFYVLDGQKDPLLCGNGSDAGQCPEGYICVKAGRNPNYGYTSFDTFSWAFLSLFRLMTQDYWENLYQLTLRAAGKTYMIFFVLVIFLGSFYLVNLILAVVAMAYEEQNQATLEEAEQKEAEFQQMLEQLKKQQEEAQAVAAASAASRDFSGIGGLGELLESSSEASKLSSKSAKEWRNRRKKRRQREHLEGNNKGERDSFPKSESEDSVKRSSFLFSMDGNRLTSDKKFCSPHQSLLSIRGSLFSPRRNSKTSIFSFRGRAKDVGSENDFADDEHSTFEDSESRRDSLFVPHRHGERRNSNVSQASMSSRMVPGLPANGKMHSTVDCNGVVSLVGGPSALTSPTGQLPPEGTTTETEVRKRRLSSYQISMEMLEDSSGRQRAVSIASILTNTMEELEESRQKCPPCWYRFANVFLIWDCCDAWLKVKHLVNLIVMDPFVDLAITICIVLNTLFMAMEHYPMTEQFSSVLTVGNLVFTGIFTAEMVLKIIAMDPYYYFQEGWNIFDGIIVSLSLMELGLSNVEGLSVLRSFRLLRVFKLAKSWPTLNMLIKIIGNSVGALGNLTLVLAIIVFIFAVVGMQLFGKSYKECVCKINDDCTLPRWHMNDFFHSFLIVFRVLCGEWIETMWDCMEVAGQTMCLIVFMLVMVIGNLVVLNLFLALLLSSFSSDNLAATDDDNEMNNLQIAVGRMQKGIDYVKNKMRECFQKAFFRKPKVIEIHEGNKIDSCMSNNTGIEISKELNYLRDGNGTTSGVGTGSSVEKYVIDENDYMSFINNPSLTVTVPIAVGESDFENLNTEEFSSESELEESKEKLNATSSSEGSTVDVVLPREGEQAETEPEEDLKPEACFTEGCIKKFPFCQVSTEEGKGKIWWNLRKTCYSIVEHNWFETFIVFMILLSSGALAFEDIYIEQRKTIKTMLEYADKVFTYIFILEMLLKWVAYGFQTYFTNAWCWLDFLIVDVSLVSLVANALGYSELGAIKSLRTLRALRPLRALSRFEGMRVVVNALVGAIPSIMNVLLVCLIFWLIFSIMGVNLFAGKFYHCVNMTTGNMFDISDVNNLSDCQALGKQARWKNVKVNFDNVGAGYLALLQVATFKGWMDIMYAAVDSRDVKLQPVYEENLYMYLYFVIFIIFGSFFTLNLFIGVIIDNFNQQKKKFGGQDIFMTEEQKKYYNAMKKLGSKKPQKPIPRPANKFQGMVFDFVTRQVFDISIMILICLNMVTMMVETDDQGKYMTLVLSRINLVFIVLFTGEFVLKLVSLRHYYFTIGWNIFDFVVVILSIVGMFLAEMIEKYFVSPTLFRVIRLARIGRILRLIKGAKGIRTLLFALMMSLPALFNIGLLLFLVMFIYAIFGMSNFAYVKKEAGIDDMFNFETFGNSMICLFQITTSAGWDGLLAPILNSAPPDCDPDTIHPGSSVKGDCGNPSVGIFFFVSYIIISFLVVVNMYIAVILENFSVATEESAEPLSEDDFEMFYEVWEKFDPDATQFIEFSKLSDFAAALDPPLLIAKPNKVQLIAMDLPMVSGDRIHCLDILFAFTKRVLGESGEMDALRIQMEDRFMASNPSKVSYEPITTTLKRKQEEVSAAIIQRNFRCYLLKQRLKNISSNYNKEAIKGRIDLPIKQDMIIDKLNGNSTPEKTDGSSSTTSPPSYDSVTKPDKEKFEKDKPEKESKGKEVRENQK
# Sequence of hNav1.7 (Q15858 whole entry, looked up): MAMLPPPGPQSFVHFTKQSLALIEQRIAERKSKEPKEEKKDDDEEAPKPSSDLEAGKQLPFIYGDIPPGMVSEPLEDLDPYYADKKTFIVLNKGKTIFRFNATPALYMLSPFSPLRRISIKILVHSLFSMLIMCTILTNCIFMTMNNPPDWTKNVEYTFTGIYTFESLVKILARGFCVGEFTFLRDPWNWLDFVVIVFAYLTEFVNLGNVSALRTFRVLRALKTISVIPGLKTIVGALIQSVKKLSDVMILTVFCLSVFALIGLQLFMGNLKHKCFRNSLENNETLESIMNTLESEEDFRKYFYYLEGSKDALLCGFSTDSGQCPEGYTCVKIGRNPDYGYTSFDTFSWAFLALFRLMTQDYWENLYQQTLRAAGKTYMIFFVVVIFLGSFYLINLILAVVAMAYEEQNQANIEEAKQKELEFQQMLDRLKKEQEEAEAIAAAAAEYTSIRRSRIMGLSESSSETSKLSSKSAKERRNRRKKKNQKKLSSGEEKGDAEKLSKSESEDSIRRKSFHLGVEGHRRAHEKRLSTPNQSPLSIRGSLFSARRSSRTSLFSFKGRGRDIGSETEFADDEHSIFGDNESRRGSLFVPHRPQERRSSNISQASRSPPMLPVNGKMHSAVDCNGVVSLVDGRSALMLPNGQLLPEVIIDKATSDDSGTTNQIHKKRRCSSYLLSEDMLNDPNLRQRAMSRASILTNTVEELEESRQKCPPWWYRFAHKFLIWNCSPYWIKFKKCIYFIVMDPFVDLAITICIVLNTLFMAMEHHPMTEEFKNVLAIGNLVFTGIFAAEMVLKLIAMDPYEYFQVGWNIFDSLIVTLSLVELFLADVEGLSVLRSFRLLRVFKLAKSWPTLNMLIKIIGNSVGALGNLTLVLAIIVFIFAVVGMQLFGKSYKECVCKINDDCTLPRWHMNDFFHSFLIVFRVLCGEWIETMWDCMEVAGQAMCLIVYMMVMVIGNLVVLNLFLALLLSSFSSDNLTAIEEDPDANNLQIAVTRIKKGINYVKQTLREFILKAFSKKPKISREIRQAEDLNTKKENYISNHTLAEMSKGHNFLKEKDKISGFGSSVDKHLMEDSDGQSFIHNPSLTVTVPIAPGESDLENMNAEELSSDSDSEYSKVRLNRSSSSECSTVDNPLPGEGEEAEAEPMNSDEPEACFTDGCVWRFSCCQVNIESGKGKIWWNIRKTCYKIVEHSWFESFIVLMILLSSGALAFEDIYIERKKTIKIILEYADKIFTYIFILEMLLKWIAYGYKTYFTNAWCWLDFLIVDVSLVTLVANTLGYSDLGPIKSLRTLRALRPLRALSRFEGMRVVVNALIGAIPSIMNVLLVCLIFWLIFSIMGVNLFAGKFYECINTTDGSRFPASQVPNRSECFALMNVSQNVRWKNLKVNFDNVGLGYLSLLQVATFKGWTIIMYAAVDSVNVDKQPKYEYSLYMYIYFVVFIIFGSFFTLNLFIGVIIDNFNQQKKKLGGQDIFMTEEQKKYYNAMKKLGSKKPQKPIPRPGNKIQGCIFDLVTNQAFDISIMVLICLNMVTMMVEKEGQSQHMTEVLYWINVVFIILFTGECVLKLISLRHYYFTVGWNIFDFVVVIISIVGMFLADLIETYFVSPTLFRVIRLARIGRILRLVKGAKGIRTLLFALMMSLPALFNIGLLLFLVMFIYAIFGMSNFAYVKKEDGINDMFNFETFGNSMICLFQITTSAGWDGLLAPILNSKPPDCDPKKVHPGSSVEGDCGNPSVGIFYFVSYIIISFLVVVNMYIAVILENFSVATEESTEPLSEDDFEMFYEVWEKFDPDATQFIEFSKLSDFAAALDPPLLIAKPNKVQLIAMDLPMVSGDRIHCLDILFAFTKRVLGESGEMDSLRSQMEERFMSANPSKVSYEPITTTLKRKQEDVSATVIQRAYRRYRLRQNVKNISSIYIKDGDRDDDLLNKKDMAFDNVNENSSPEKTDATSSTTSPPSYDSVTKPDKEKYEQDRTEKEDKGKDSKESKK
Structure (SMILES),IC50 (hNav1.7),IC50 (hNav1.5),IC50 (hNav1.3)
"CC[C@H](C)[C@@H]1NC(=O)[C@@H]2CSSC[C@@H]3NC(=O)[C@H](C(C)C)NC(=O)[C@H](CC(C)C)NC(=O)[C@H](CC(N)=O)NC(=O)[C@H](CO)NC(=O)[C@H](CCCNC(=N)N)NC(=O)[C@H](CSSC[C@H](NC(=O)[C@@H](N)CC(=O)O)C(=O)N[C@@H](CC(C)C)C(=O)NCC(=O)N[C@@H](Cc4ccccc4)C(=O)N[C@@H](CCSC)C(=O)N[C@@H](CCCNC(=N)N)C(=O)N[C@@H](CCCCN)C(=O)N2)NC(=O)[C@H](CSSC[C@@H](C(=O)N[C@@H](CCCCN)C(=O)N[C@@H](Cc2cn(C)c4ccccc24)C(=O)N[C@H](C(=O)N[C@@H](Cc2ccccc2)C(N)=O)C(C)C)NC(=O)[C@H](Cc2c[nH]c4ccccc24)NC(=O)[C@H](CCCCN)NC(=O)[C@H](Cc2c[nH]cn2)NC(=O)[C@H]([C@@H](C)O)NC(=O)[C@H](CCCNC(=N)N)NC(=O)[C@H](CO)NC3=O)NC(=O)[C@H](CCCCN)NC(=O)[C@H](CC(=O)O)NC(=O)[C@H](CC(N)=O)NC(=O)[C@H](CC(=O)O)NC(=O)[C@@H]2CCCN2C1=O [compound 695] (H-DCLGFMRKCIPDNDKCCRSNLVCSRTHKWCK[Trp(1-Me)]VF-NH2; disulfide 2-17, 9-23, 16-30)",30 nM,> 5000 nM,30 nM
"CC[C@H](C)[C@@H]1NC(=O)[C@@H]2CSSC[C@@H]3NC(=O)[C@H](C(C)C)NC(=O)[C@H](CC(C)C)NC(=O)[C@H](CC(N)=O)NC(=O)[C@@H]4CCCN4C(=O)[C@H](CCCNC(=N)N)NC(=O)[C@H](CSSC[C@H](NC(=O)[C@@H](N)CC(=O)O)C(=O)N[C@@H](CC(C)C)C(=O)NCC(=O)N[C@@H](C)C(=O)NCC(=O)N[C@@H](CCCNC(=N)N)C(=O)N[C@@H](CCCCN)C(=O)N2)NC(=O)[C@H](CSSC[C@@H](C(=O)N[C@@H](CCCCN)C(=O)N[C@@H](Cc2ccc(O)cc2)C(=O)N[C@H](C(=O)N[C@@H](Cc2ccccc2)C(N)=O)C(C)C)NC(=O)[C@H](Cc2c[nH]c4ccccc24)NC(=O)[C@H](CCCCN)NC(=O)[C@H](Cc2c[nH]cn2)NC(=O)[C@H]([C@@H](C)O)NC(=O)[C@H](CCCNC(=N)N)NC(=O)[C@H](CO)NC3=O)NC(=O)[C@H](CCCCN)NC(=O)[C@H](CC(=O)O)NC(=O)[C@H](CC(N)=O)NC(=O)[C@H](CC(=O)O)NC(=O)[C@@H]2CCCN2C1=O [compound 697] (H-DCLGAGRKCIPDNDKCCRPNLVCSRTHKWCKYVF-NH2; disulfide 2-17, 9-23, 16-30)",8100 nM,> 5000 nM,4400 nM
"CC[C@H](C)[C@@H]1NC(=O)[C@@H]2CSSC[C@@H]3NC(=O)[C@H](C(C)C)NC(=O)[C@H](CC(C)C)NC(=O)[C@H](CC(N)=O)NC(=O)[C@@H]4CCCN4C(=O)[C@H](CCCNC(=N)N)NC(=O)[C@H](CSSC[C@H](NC(=O)[C@@H](N)CC(=O)O)C(=O)N[C@@H](CC(C)C)C(=O)NCC(=O)N[C@@H](C)C(=O)N[C@@H](Cc4ccc(O)cc4)C(=O)N[C@@H](CCCNC(=N)N)C(=O)N[C@@H](CCCCN)C(=O)N2)NC(=O)[C@H](CSSC[C@@H](C(=O)N[C@@H](CCCCN)C(=O)N[C@@H](Cc2ccc(O)cc2)C(=O)N[C@H](C(=O)N[C@@H](Cc2ccccc2)C(N)=O)C(C)C)NC(=O)[C@H](Cc2c[nH]c4ccccc24)NC(=O)[C@H](CCCCN)NC(=O)[C@H](Cc2c[nH]cn2)NC(=O)[C@H]([C@@H](C)O)NC(=O)[C@H](CCCNC(=N)N)NC(=O)[C@H](CO)NC3=O)NC(=O)[C@H](CCCCN)NC(=O)[C@H](CC(=O)O)NC(=O)[C@H](CC(N)=O)NC(=O)[C@H](CC(=O)O)NC(=O)[C@@H]2CCCN2C1=O [compound 698] (H-DCLGAYRKCIPDNDKCCRPNLVCSRTHKWCKYVF-NH2; disulfide 2-17, 9-23, 16-30)",4400 nM,> 5000 nM,> 5000 nM
CC[C@H](C)[C@@H]1NC(=O)[C@@H]2CSSC[C@@H]3NC(=O)[C@H](C(C)C)NC(=O)[C@H](CC(C)C)NC(=O)[C@H](CC(N)=O)NC(=O)[C@@H]4CCCN4C(=O)[C@H](CCCNC(=N)N)NC(=O)[C@H](CSSC[C@H](NC(=O)[C@@H](N)CC(=O)O)C(=O)N[C@@H](CC(C)C)C(=O)NCC(=O)N[C@@H](C)C(=O)N[C@@H](Cc4cn(C)c5ccccc45)C(=O)N[C@@H](CCCNC(=N)N)C(=O)N[C@@H](CCCCN)C(=O)N2)NC(=O)[C@H](CSSC[C@@H](C(=O)N[C@@H](CCCCN)C(=O)N[C@@H](Cc2ccc(O)cc2)C(=O)N[C@H](C(=O)N[C@@H](Cc2ccccc2)C(N)=O)C(C)C)NC(=O)[C@H](Cc2c[nH]c4ccccc24)NC(=O)[C@H](CCCCN)NC(=O)[C@H](Cc2c[nH]cn2)NC(=O)[C@H]([C@@H](C)O)NC(=O)[C@H](CCCNC(=N)N)NC(=O)[C@H](CO)NC3=O)NC(=O)[C@H](CCCCN)NC(=O)[C@H](CC(=O)O)NC(=O)[C@H](CC(N)=O)NC(=O)[C@H](CC(=O)O)NC(=O)[C@@H]2CCCN2C1=O [compound 699],340 nM,> 5000 nM,320 nM
"CSCC[C@@H]1NC(=O)[C@H](C)NC(=O)CNC(=O)[C@H](CC(C)C)NC(=O)[C@@H](NC(=O)[C@@H](N)CC(=O)O)CSSC[C@@H]2NC(=O)[C@@H]3CSSC[C@@H](C(=O)N[C@@H](CCCCN)C(=O)N[C@@H](Cc4ccc(O)cc4)C(=O)N[C@H](C(=O)N[C@@H](Cc4ccccc4)C(N)=O)C(C)C)NC(=O)[C@H](Cc4c[nH]c5ccccc45)NC(=O)[C@H](CCCCN)NC(=O)[C@H](Cc4c[nH]cn4)NC(=O)[C@H]([C@@H](C)O)NC(=O)[C@H](CCCNC(=N)N)NC(=O)[C@H](CO)NC(=O)[C@H](CSSC[C@H](NC(=O)[C@H](CCCCN)NC(=O)[C@H](CCCNC(=N)N)NC1=O)C(=O)N[C@@H](CC(=O)O)C(=O)N1CCC[C@H]1C(=O)N[C@@H](CC(=O)O)C(=O)N[C@@H](CC(N)=O)C(=O)N[C@@H](CC(=O)O)C(=O)N[C@@H](CCCCN)C(=O)N3)NC(=O)[C@H](C(C)C)NC(=O)[C@H](CC(C)C)NC(=O)[C@H](CC(N)=O)NC(=O)[C@@H]1CCCN1C(=O)[C@H](CCCNC(=N)N)NC2=O [compound 700] (H-DCLGAMRKCDPDNDKCCRPNLVCSRTHKWCKYVF-NH2; disulfide 2-17, 9-23, 16-30)",740 nM,35000 nM,840 nM
"CSCC[C@@H]1NC(=O)[C@H](C)NC(=O)CNC(=O)[C@H](CC(C)C)NC(=O)[C@@H](NC(=O)[C@@H](N)CC(=O)O)CSSC[C@@H]2NC(=O)[C@@H]3CSSC[C@@H](C(=O)N[C@@H](CCCCN)C(=O)N[C@@H](Cc4ccc(O)cc4)C(=O)N[C@H](C(=O)N[C@@H](Cc4ccccc4)C(N)=O)C(C)C)NC(=O)[C@H](Cc4c[nH]c5ccccc45)NC(=O)[C@H](CCCCN)NC(=O)[C@H](Cc4c[nH]cn4)NC(=O)[C@H]([C@@H](C)O)NC(=O)[C@H](CCCNC(=N)N)NC(=O)[C@H](CO)NC(=O)[C@H](CSSC[C@H](NC(=O)[C@H](CCCCN)NC(=O)[C@H](CCCNC(=N)N)NC1=O)C(=O)N[C@@H](CC(=O)O)C(=O)N1CCC[C@H]1C(=O)N[C@@H](CCC(=O)O)C(=O)N[C@@H](CC(N)=O)C(=O)N[C@@H](CC(=O)O)C(=O)N[C@@H](CCCCN)C(=O)N3)NC(=O)[C@H](C(C)C)NC(=O)[C@H](CC(C)C)NC(=O)[C@H](CC(N)=O)NC(=O)[C@@H]1CCCN1C(=O)[C@H](CCCNC(=N)N)NC2=O [compound 701] (H-DCLGAMRKCDPENDKCCRPNLVCSRTHKWCKYVF-NH2; disulfide 2-17, 9-23, 16-30)",970 nM,43000 nM,1500 nM
